Measured values: ChEMBL document CHEMBL2010741, “Synthesis and evaluation of a new series of 1'-cyclobutyl-6-(4-piperidyloxy)spiro[benzopyran-2,4'-piperidine] derivatives as high affinity and selective histamine-3 receptor (H3R) antagonists” (Bioorg Med Chem Lett, 2012)

Key:
Histamine H3 receptor [1] = target: Histamine H3 receptor (Rattus norvegicus, UniProt Q9QYN8); test: Displacement of [3H]N-alpha-methylhistamine from rat cloned histamine H3 receptor expressed in CHO cells; type: cell-based
Chain of Histamine H3 receptor (Rattus norvegicus, UniProt Q9QYN8) (Q9QYN8 whole entry): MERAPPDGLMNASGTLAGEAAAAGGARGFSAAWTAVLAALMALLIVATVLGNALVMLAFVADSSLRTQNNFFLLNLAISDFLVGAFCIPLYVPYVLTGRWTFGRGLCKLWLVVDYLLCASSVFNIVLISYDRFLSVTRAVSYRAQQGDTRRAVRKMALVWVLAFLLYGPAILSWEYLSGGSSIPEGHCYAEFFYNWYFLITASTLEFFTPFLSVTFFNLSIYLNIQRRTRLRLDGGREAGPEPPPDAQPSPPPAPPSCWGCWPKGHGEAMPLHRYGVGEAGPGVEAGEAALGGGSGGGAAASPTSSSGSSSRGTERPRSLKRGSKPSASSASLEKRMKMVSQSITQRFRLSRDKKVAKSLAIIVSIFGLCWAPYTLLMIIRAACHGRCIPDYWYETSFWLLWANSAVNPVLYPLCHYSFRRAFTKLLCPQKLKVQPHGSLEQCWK

Histamine H3 receptor [2] = target: T1, Histamine H3 receptor (Homo sapiens, UniProt Q9Y5N1); test: Displacement of [3H]-N-alpha-methylhistamine from human cloned histamine H3 receptor expressed in CHO cells; type: cell-based
T1 sequence (Q9Y5N1 whole entry): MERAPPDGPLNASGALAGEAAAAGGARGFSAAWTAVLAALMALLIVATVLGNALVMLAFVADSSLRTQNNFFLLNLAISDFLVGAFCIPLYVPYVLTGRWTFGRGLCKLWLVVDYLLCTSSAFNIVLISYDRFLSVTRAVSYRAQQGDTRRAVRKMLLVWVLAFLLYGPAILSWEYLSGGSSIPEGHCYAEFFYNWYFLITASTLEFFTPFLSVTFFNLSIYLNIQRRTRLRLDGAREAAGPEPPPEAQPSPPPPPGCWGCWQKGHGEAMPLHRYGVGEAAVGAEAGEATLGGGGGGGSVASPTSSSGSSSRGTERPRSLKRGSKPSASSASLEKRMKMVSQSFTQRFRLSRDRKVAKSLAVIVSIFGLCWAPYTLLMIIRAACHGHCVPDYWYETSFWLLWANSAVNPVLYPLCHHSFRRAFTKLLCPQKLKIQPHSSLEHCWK

[3] = Cmax in rat at 5 mg/kg, po; type: ADME, organism-based; design: dose 5 mg/kg, route oral; settings: in vivo
Cytochrome P450 2C19 = Cytochrome P450 2C19 (Homo sapiens, UniProt P33261); test: Inhibition of CYP2C19; type: ADME
Chain of Cytochrome P450 2C19 (P33261 whole entry): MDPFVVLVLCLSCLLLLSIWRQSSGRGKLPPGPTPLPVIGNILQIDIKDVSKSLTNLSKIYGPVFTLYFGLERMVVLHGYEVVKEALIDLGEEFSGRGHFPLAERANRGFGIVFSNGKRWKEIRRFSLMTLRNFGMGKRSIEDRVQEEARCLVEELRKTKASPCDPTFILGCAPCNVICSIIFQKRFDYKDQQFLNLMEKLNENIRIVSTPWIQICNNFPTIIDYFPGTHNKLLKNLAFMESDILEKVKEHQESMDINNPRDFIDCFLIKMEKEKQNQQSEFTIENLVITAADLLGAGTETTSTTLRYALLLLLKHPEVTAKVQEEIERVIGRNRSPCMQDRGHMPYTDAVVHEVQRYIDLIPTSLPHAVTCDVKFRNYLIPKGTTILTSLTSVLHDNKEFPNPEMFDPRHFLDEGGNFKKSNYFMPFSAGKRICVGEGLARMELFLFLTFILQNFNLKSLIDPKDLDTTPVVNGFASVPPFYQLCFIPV

[4] = Volume of distribution in rat at 1 mg/kg, iv; type: ADME, organism-based; design: dose 1 mg/kg, route intravenous; settings: in vivo
Cytochrome P450 3A4 = Cytochrome P450 3A4 (Homo sapiens, UniProt P08684); test: Inhibition of CYP3A4; type: ADME
Chain of Cytochrome P450 3A4 (P08684 whole entry): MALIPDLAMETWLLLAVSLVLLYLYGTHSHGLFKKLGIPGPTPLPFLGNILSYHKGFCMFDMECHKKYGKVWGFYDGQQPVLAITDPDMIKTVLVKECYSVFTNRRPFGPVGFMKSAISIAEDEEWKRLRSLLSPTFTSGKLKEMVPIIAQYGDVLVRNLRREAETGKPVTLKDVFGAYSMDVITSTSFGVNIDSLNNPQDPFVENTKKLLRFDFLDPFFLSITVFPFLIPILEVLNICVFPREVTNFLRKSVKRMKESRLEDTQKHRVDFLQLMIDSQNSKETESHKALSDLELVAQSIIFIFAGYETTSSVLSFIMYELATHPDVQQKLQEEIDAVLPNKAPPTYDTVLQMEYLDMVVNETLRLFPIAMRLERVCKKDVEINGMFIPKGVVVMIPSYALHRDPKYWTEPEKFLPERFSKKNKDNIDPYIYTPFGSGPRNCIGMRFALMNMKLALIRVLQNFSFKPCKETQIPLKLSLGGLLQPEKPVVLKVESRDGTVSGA

[5] = Half life in mouse liver microsomes; type: ADME, Microsome
[6] = AUC (infinity) in rat at 5 mg/kg, po; type: ADME, organism-based; design: time infinity, dose 5 mg/kg, route oral; settings: plasma
Cytochrome P450 2D6 = Cytochrome P450 2D6 (Homo sapiens, UniProt P10635); test: Inhibition of CYP2D6; type: ADME
Chain of Cytochrome P450 2D6 (P10635 whole entry): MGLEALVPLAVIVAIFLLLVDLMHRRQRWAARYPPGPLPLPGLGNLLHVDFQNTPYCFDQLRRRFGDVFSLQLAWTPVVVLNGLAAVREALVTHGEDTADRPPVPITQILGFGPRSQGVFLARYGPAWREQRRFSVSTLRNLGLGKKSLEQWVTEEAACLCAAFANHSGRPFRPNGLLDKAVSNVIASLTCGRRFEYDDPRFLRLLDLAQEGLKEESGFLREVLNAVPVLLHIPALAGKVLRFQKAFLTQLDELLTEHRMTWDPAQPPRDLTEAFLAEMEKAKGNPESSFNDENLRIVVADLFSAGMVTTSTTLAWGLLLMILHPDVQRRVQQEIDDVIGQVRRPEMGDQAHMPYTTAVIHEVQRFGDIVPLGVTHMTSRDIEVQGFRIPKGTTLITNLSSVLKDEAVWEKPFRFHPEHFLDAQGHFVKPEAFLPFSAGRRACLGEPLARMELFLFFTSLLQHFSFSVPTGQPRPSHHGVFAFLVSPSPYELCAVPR

Cytochrome P450 1A2 = target: T2, Cytochrome P450 1A2 (Homo sapiens, UniProt P05177); test: Inhibition of CYP1A2; type: ADME
T2 sequence (P05177 whole entry): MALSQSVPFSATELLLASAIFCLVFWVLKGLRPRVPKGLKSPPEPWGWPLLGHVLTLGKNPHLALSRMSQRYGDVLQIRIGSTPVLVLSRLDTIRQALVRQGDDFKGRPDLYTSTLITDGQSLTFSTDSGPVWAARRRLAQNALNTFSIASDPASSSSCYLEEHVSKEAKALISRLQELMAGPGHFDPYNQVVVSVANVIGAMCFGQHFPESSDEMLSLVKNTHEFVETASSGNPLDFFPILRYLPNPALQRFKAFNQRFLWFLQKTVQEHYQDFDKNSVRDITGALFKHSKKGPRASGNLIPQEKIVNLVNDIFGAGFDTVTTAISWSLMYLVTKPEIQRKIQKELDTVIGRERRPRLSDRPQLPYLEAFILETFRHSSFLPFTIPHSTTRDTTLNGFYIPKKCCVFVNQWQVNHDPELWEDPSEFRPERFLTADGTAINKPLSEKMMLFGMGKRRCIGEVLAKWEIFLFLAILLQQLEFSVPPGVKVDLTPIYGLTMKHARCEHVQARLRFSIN

[7] = target: Histamine H4 receptor (Homo sapiens) (UniProt Q9H3N8); test: Inhibition of human H4 receptor at 10 uM
[8] = Half life in rat at 1 mg/kg, iv; type: ADME, organism-based; design: dose 1 mg/kg, route intravenous; settings: in vivo
[9] = Half life in dog liver microsomes; type: ADME, Canis lupus familiaris, Microsome
[10] = Oral bioavailability in rat at 5 mg/kg; type: ADME, organism-based; settings: in vivo
[11] = Half life in human liver microsomes; type: ADME, Microsome
Cytochrome P450 2C9 = Cytochrome P450 2C9 (Homo sapiens, UniProt P11712); test: Inhibition of CYP2C9; type: ADME
Chain of Cytochrome P450 2C9 (P11712 whole entry): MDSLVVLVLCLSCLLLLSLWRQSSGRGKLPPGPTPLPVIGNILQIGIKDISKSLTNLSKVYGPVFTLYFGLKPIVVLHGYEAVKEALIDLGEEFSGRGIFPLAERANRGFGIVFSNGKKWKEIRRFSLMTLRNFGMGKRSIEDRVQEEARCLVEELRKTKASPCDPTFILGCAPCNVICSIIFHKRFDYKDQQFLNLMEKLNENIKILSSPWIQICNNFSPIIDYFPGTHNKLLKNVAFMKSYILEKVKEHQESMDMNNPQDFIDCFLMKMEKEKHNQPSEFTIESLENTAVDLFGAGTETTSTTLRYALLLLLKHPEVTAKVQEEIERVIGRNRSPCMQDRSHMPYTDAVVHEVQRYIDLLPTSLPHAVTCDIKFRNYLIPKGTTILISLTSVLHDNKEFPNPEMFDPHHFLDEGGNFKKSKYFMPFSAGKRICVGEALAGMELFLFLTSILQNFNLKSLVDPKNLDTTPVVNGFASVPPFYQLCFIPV

[12] = target: Histamine H1 receptor (Homo sapiens) (UniProt P35367); test: Inhibition of human H1 receptor at 10 uM
Chain of Histamine H1 receptor (Homo sapiens) (P35367 whole entry): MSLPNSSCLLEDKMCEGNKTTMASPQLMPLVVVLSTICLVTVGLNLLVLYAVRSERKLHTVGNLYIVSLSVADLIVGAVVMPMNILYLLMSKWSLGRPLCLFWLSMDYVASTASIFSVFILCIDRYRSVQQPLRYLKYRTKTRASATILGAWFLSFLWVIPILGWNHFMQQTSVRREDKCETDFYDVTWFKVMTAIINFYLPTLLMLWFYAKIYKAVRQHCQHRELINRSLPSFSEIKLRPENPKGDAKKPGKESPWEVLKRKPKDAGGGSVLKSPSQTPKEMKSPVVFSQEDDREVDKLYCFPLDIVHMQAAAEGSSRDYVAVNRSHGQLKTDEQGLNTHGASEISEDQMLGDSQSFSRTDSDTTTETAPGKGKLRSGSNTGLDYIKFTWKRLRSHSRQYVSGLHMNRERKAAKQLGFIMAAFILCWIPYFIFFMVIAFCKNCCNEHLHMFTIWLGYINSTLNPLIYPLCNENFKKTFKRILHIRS

[13] = Half life in rat liver microsomes; type: ADME, Microsome
[14] = target: Histamine H2 receptor (Homo sapiens) (UniProt P25021); test: Inhibition of human H2 receptor at 10 uM
Chain of Histamine H2 receptor (Homo sapiens) (P25021 whole entry): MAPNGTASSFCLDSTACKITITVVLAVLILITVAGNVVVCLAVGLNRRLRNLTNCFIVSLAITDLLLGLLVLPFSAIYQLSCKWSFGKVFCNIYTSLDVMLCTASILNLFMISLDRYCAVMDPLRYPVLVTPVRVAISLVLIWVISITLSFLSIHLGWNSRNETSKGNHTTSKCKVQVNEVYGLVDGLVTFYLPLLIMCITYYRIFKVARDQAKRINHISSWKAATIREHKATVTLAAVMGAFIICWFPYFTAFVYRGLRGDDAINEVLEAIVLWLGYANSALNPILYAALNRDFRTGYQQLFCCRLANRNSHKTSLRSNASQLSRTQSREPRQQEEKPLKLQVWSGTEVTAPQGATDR

[15] = Clearance in rat at 1 mg/kg, iv; type: ADME, organism-based; design: dose 1 mg/kg, route intravenous; settings: in vivo
[16] = Ratio of drug level in brain to plasma of rat at 10 mg/kg, ip after 1 hr; type: ADME, organism-based; design: dose 10 mg/kg, route intraperitoneal; settings: read-out: BPR
[17] = Aqueous solubility of the compound at pH 7.4; type: physicochemical; settings: buffer
[18] = target: Histamine H3 receptor (Rattus norvegicus) (UniProt Q9QYN8); settings: CHO, 10 uM
Chain of Histamine H3 receptor (Rattus norvegicus) (Q9QYN8 whole entry): as the sequence (Q9QYN8 whole entry) above

Histamine H3 receptor [19] = target: T1, Histamine H3 receptor; settings: CHO, 10 uM

Row | Compound | Ki (Histamine H3 receptor [1]) | Ki (Histamine H3 receptor [2]) | Cmax [3] | IC50 (Cytochrome P450 2C19) | Vd [4] | IC50 (Cytochrome P450 3A4) | half-life [5] | AUC(0-inf) [6] | IC50 (Cytochrome P450 2D6) | IC50 (Cytochrome P450 1A2) | half-life [8] | half-life [9] | bioavailability [10] | half-life [11] | IC50 (Cytochrome P450 2C9) | half-life [13] | clearance [15] | Kp at 1 h [16] | solubility [17] | also measured
1 | CC(C)S(=O)(=O)N1CCC(Oc2ccc3c(c2)CCC2(CCN(C4CCC4)CC2)O3)CC1 | 27 nM | 7 nM | – | – | – | – | – | – | – | – | – | – | – | – | – | – | – | – | – | –
2 | CS(=O)(=O)N1CCC(Oc2ccc3c(c2)CCC2(CCN(C4CCC4)CC2)O3)CC1 | 17 nM | 7 nM | 83 ng/mL | > 30000 nM | 0.5 L/kg | > 30000 nM | > 40 min | 392 ng·h/mL | 18000 nM | > 30000 nM | 36 min | > 40 min | 4% | > 40 min | > 30000 nM | > 40 min | 9 mL/min/kg | 1.5 | > 100 µg/mL | inhibition [7]: < 20%; inhibition [12]: < 20%; inhibition [14]: < 20%
3 | Oc1ccc2c(c1)CCC1(CCN(C3CCC3)CC1)O2 | > 3000 nM | > 3000 nM | – | – | – | – | – | – | – | – | – | – | – | – | – | – | – | – | – | inhibition [18]: 50%; inhibition (Histamine H3 receptor [19]): 50%
4 | CCS(=O)(=O)N1CCC(Oc2ccc3c(c2)CCC2(CCN(C4CCC4)CC2)O3)CC1 | 24 nM | 7 nM | – | – | – | – | – | – | – | – | – | – | – | – | – | – | – | – | – | –
5 | O=S(=O)(C1CC1)N1CCC(Oc2ccc3c(c2)CCC2(CCN(C4CCC4)CC2)O3)CC1 | 18 nM | 9 nM | 76 ng/mL | > 30000 nM | 1.6 L/kg | > 30000 nM | > 40 min | 435 ng·h/mL | > 30000 nM | > 30000 nM | 108 min | > 40 min | 5% | > 40 min | > 30000 nM | > 40 min | 10 mL/min/kg | 2 | > 100 µg/mL | –
6 | CC(C)(C)OC(=O)N1CCC(Oc2ccc3c(c2)CCC2(CCN(C4CCC4)CC2)O3)CC1 | 40 nM | 47 nM | – | – | – | – | – | – | – | – | – | – | – | – | – | – | – | – | – | –

The next molecules have a lower Ki (Histamine H3 receptor [1]) than those just listed; values first:

Row | Ki (Histamine H3 receptor [1]) | Ki (Histamine H3 receptor [2]) | Cmax [3] | IC50 (Cytochrome P450 2C19) | Vd [4] | IC50 (Cytochrome P450 3A4) | half-life [5] | AUC(0-inf) [6] | IC50 (Cytochrome P450 2D6) | IC50 (Cytochrome P450 1A2) | half-life [8] | half-life [9] | bioavailability [10] | half-life [11] | IC50 (Cytochrome P450 2C9) | half-life [13] | clearance [15] | Kp at 1 h [16] | solubility [17] | Compound | also measured
7 | 16 nM | 6 nM | 71 ng/mL | > 30000 nM | 2.7 L/kg | > 30000 nM | > 40 min | 359 ng·h/mL | > 30000 nM | > 30000 nM | 96 min | > 40 min | 8% | > 40 min | > 30000 nM | > 40 min | 20 mL/min/kg | 2.3 | > 100 µg/mL | O=C(C1CC1)N1CCC(Oc2ccc3c(c2)CCC2(CCN(C4CCC4)CC2)O3)CC1 | –
8 | 10 nM | 4 nM | – | > 30000 nM | – | > 30000 nM | > 40 min | – | > 30000 nM | > 30000 nM | – | > 40 min | – | > 40 min | > 30000 nM | > 40 min | – | – | – | CC(=O)N1CCC(Oc2ccc3c(c2)CCC2(CCN(C4CCC4)CC2)O3)CC1 | –
9 | 6 nM | 3 nM | – | – | – | – | – | – | – | – | – | – | – | – | – | – | – | – | – | c1cc2c(cc1OC1CCNCC1)CCC1(CCN(C3CCC3)CC1)O2 | –
10 | 6 nM | 2 nM | 80 ng/mL | > 30000 nM | 1.9 L/kg | > 30000 nM | > 40 min | 410 ng·h/mL | > 30000 nM | > 30000 nM | 66 min | > 40 min | 9% | > 40 min | > 30000 nM | > 40 min | 18 mL/min/kg | 2.3 | > 100 µg/mL | CC(C)C(=O)N1CCC(Oc2ccc3c(c2)CCC2(CCN(C4CCC4)CC2)O3)CC1 | –
